Source: ChEMBL document CHEMBL3407393, “Optimisation of LRRK2 inhibitors and assessment of functional efficacy in cell-based models of neuroinflammation” (Eur J Med Chem, 2015)
Calls of active or inactive are those of the source. The calls are words filed in the database; no cut-off is given here.

How the values were obtained:
[1] = molecular target: Leucine-rich repeat serine/threonine-protein kinase 2 (Homo sapiens, UniProt Q5S007, G2019S); experiment: Inhibition of LRRK2 G2019S mutant ([…]) (unknown origin) stably expressed in HEK293 cell lysate using [gamma-32P] after 15 mins by Cerenkov counting method; assay type: cell-free
Leucine-rich repeat serine/threonine-protein kinase 2, sequence (Q5S007 whole entry G2019S): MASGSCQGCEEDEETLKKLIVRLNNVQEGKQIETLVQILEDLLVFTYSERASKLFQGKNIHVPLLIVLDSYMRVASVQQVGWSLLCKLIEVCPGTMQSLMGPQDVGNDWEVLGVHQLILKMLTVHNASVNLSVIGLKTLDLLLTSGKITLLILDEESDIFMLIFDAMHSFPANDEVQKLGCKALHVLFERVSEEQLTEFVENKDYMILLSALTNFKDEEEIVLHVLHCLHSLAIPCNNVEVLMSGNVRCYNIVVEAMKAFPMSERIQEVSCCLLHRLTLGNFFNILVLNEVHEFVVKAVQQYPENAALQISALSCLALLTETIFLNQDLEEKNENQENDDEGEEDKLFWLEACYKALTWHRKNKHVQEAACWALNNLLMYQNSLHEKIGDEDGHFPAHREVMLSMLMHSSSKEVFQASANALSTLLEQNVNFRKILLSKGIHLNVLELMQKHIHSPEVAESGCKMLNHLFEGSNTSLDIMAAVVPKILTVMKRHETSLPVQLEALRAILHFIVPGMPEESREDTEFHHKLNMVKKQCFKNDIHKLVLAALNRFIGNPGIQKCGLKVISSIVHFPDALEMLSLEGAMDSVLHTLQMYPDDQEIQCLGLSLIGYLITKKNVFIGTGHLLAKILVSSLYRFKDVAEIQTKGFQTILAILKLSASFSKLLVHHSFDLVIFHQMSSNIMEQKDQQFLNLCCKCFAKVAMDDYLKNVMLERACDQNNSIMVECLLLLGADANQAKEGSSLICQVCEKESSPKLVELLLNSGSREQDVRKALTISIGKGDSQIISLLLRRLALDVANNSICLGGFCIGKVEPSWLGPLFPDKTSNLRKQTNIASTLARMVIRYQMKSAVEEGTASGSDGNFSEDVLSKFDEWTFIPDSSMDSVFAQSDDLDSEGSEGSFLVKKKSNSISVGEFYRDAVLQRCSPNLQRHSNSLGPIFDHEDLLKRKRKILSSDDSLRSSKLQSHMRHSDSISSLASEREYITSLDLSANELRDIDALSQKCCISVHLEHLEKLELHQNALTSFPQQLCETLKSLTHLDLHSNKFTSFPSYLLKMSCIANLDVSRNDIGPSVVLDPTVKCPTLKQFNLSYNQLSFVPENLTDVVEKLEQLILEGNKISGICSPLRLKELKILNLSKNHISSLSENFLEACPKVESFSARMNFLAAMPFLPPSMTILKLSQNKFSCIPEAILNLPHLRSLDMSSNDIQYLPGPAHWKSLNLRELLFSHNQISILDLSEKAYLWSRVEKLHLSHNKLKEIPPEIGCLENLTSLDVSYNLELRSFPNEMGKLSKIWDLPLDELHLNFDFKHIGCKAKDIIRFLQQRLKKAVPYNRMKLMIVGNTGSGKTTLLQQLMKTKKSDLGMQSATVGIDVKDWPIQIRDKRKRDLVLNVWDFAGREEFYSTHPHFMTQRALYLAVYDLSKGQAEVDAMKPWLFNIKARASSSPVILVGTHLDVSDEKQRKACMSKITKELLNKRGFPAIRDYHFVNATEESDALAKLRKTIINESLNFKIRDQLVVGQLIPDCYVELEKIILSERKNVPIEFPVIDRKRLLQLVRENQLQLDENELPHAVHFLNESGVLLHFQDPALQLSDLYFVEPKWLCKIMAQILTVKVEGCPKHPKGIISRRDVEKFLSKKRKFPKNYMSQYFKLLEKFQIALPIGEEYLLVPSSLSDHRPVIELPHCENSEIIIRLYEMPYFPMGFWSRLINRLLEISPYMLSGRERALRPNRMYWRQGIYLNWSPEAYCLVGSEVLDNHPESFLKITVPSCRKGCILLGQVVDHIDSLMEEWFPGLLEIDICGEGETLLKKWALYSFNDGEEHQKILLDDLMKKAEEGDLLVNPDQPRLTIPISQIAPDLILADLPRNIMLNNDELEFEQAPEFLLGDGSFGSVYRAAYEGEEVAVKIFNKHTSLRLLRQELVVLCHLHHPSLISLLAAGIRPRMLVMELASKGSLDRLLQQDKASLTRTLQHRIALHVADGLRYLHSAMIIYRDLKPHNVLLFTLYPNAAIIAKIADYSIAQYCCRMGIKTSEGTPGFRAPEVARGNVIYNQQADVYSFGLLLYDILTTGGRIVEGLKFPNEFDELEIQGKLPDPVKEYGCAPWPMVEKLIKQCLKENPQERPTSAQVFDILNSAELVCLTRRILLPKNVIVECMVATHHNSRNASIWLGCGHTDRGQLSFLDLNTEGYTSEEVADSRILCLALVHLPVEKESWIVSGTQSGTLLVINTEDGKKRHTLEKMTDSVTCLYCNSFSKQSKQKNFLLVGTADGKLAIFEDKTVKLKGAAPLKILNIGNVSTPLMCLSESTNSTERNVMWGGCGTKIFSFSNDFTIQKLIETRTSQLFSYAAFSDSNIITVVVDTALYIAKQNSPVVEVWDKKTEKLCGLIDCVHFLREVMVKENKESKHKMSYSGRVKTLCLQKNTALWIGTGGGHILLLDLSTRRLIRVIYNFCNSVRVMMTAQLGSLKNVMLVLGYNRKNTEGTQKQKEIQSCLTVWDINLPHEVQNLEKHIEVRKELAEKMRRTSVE

[2] = (§1) Inhibition of IL6 secretion in LPS/IL-1beta-stimulated human primary microglia compound pretreated at 10 uM for 30 mins before stimulation measured after 24 hrs by ELISA; assay type: functional
[3] = Inhibition of IL6 secretion in LPS/IL-1beta-stimulated human primary microglia compound pretreated for 30 mins before stimulation measured after 24 hrs by ELISA; assay type: functional
[4] = Inhibition of IL6 secretion in LPS/IL-1beta-stimulated human U87 cells compound pretreated at 10 uM for 30 mins before stimulation measured after 24 hrs by ELISA; assay type: functional, U-87MG ATCC; conditions: U-87 MG
[5] = Inhibition of IL6 secretion in LPS/IL-1beta-stimulated human U87 cells compound pretreated for 30 mins before stimulation measured after 24 hrs by ELISA; assay type: functional, cell-based, U-87MG ATCC; conditions: U-87 MG
[6] = Biochemical index, ratio of IC50 for LRRK2 G2019S mutant (unknown origin) to EC50 for IL6 secretion in LPS/IL-1beta-stimulated human primary microglia
Homo sapiens = organism: Homo sapiens; experiment: as §1; assay type: functional
[7] = Oral bioavailability in mouse; assay type: ADME, organism-based; conditions: in vivo

| IC50 [1] [nM] | EC50 [3] [nM] | EC50 [5] [nM] | bioavailability [7] [%] | SMILES | inhibition at 10 µM [2] [%] | inhibition at 10 µM [4] [%] | Ratio IC50/EC50 [6] | inhibition (Homo sapiens) |
| --- | --- | --- | --- | --- | --- | --- | --- | --- |
| 72 | 4260 | 3680 |  | CN1C(=O)c2ccccc2N(C)c2nc(Nc3ccc(C(=O)N4CCC(N5CCCCC5)CC4)cc3Cl)ncc21 | 81.3 | 87.9 | 0.017 |  |
| > 1000 |  |  |  | O=C(c1ccc(Nc2cccnc2)c(Cl)c1)N1CCC(N2CCCCC2)CC1 | 36.3 | 46.6 |  |  |
| > 1000 |  |  |  | CC(=O)Nc1ccc(Nc2ccc(C(=O)N3CCC(N4CCCCC4)CC3)cc2Cl)cc1 | 31.8 | 36.1 |  |  |
| > 1000 |  |  |  | O=C(c1ccc(Nc2cncnc2)c(Cl)c1)N1CCC(N2CCCCC2)CC1 |  | 40.7 |  |  |
| > 1000 |  |  |  | CN1C(=O)c2ccccc2N(C)c2nc(Cl)ncc21 | 18 | 23.2 |  |  |
| > 1000 |  |  |  | COc1ccccc1Nc1ccc(C(=O)N2CCC(N3CCCCC3)CC2)cc1Cl | 56.6 | 58.6 |  |  |
| > 1000 |  |  |  | Cc1ccc(Nc2ccc(C(=O)N3CCC(N4CCCCC4)CC3)cc2Cl)cc1 | 29.7 | 37.8 |  |  |
| > 1000 |  |  |  | Cn1cccc1CNc1ccc(C(=O)N2CCC(N3CCCCC3)CC2)cc1Cl | 17.3 | 42.4 |  |  |
| > 1000 |  |  |  | O=C(c1ccc(Nc2ccccn2)c(Cl)c1)N1CCC(N2CCCCC2)CC1 | 7.3 | 46.7 |  |  |
| > 1000 |  |  |  | O=C(c1ccc(Nc2ncccn2)c(Cl)c1)N1CCC(N2CCCCC2)CC1 | 46.4 | 39.3 |  |  |
| > 1000 |  |  |  | CN1Cc2ccccc2N(C)c2nc(Cl)ncc21 | 6.3 | 64.6 |  |  |
| 654 |  |  |  | Nc1ccc(C(=O)N2CCC(N3CCCCC3)CC2)cc1Cl | 16.9 | 49.9 |  |  |
| > 1000 |  |  |  | O=C(c1ccc(Nc2ccccc2[N+](=O)[O-])c(Cl)c1)N1CCC(N2CCCCC2)CC1 | 65.4 | 45.6 |  |  |
| > 1000 |  |  |  | O=C(c1ccc(Nc2ccc([N+](=O)[O-])cc2)c(Cl)c1)N1CCC(N2CCCCC2)CC1 | 53.6 | 47.9 |  |  |
| > 1000 |  |  |  | O=C(c1ccc(NCc2ccc([N+](=O)[O-])cc2)c(Cl)c1)N1CCC(N2CCCCC2)CC1 | 56.3 | 56.4 |  |  |
| > 1000 |  |  |  | Cc1ccc(CNc2ccc(C(=O)N3CCC(N4CCCCC4)CC3)cc2Cl)cc1 | 42 | 36.1 |  |  |
| > 1000 |  |  |  | O=C(Nc1ccc(C(=O)N2CCC(N3CCCCC3)CC2)cc1Cl)c1ccc[nH]1 |  | 51.9 |  | inactive |
| > 1000 |  |  |  | CCCNc1ccc(C(=O)N2CCC(N3CCCCC3)CC2)cc1Cl | 47.6 | 55.8 |  |  |
| > 1000 |  |  |  | COc1cccc(Nc2ccc(C(=O)N3CCC(N4CCCCC4)CC3)cc2Cl)c1 | 53 | 47.8 |  |  |
| > 1000 |  |  |  | O=C(c1ccc(Nc2ccccc2)c(Cl)c1)N1CCC(N2CCCCC2)CC1 | 44.7 | 32.3 |  |  |
| > 1000 |  |  |  | COc1cccc(CNc2ccc(C(=O)N3CCC(N4CCCCC4)CC3)cc2Cl)c1 | 52.9 | 52 |  |  |
| 51.2 |  |  |  | CN1Cc2ccccc2N(C)c2nc(Nc3ccc(C(=O)N4CCC(N5CCCCC5)CC4)cc3Cl)ncc21 | 70 | 58.8 |  |  |
| > 1000 |  |  |  | O=C(c1ccc(NC2CCCCC2)c(Cl)c1)N1CCC(N2CCCCC2)CC1 | 82.4 | 54.2 |  |  |
| 7.9 | 830 | 660 | 49.3 | COc1cc(C(=O)N2CCC(N3CCN(C)CC3)CC2)ccc1Nc1ncc2c(n1)N(C)c1ccccc1C(=O)N2C | 95 | 94.1 | 0.009 |  |
| > 1000 |  |  |  | O=C(c1ccc(NCc2ccccc2)c(Cl)c1)N1CCC(N2CCCCC2)CC1 | 65.3 | 62.6 |  |  |
